US7041280B2, “Aryl boronate functionalized polymers for treating obesity” (Genzyme Corporation, priority 2001, dated 2006)

System: fat absorption through lipase inhibition in rats
Settings: rats gavaged with 4 mL olive oil emulsion with drug after 18 hour fast, intestinal contents after 8 hours; for In Vivo Infusion Assay in Rats ED50 (mg/g fat) or estimate: dose at half the maximum recoverable triglyceride; for In Vivo Infusion Assay in Rats Ed50 (mg/kg body wt) or estimate: dose per body weight
Protocol: Compounds were evaluated in rats to determine their in vivo potency in inhibiting fat absorption through lipase inhibition. Rats were acclimated to the facility for approximately 1 week in individual wire-bottom cages and provided a standard chow diet and water ad libitum. […] Test compounds were dissolved in DMSO or deionized water. Drug solutions were mixed thoroughly in the olive oil emulsion just prior to administration. After 8 hours, rats were euthanized with CO2 and the intestines were removed. The intestinal contents were harvested from the lower half of the small intestine and the cecum. Contents were placed in separate, pre-weighed, 15 milliliter conical screw cap tubes in a (dry ice/alcohol bath) to maintain freezing temperature until the final freeze of all samples. Samples were stored at −80° C. until lyophilization.
Samples were freeze-dried and ground, then analyzed for triglyceride and fatty acid.
A 20 milligram aliquot of each sample was weighed and transferred to a 15 milliliters conical tube. 3 milliliters of hexane were added to each tube, which were capped and vortexed for 15 seconds at high speed. 3 milliliters of 1 N HCl were added and the samples were then subjected to wrist-action shaking for 1 hour. Samples were then centrifuged for 5 minutes at 3500 rpm and the hexane layer was collected. An aliquot of the hexane layer was diluted in hexane and analyzed for triglyceride, diglyceride and fatty acid by HPLC as described above.
The data was expressed as follows. The milligrams of intestinal contents that was extracted and the total number of milligrams collected were recorded. The milligrams/milliliters values obtained from the HPLC analysis were entered. The individual lipid components were calculated and expressed as total milligrams recovered. Dose units are expressed as the milligrams of drug per gram of oil administered to each rat. The ED50's were determined by extrapolating the dose value at half the maximum obtainable triglyceride recoverable in the assay.

Row | Substance | In Vivo Infusion Assay in Rats ED50 (mg/g fat) or estimate | In Vivo Infusion Assay in Rats Ed50 (mg/kg body wt) or estimate
1 | Poly(N-diethanolaminopropyl)acrylamide conjugated with 4-(14′-hydroxy-3′-thia-1′-ketotetradecyl)-3-fluorophenylboronic acid [Polymer 5] | 50 mg/g fat | 375 mg/kg body wt
2 | Poly(N-diethanolaminopropyl)acrylamide conjugated with 4-(14′-hydroxy-3′-thia-1′-ketotetradecyl)phenylboronic acid [Polymer 6] | 36 mg/g fat | 270 mg/kg body wt
3 | poly(N-diethanolaminopropyl)acrylamide conjugated with 4-(14′-trimethylammonium-3′-thia-1′-ketotetradecyl)-3-fluorophenylboronic acid bromide [Polymer 1] | 3 mg/g fat | 22.5 mg/kg body wt
4 | poly(N-diethanolaminopropyl)acrylamide conjugated with 4-(14′-trimethylammonium-3′-thia-1′-ketotetradecyl)-3-fluorophenylboronic acid bromide [Polymer 2] | 4.5 mg/g fat | 33.8 mg/kg body wt
5 | poly(N-diethanolaminopropyl)acrylamide conjugated with 4-(14′-trimethylammonium-3′-thia-1′-ketotetradecyl)phenylboronic acid bromide [Polymer 3] | 20 mg/g fat | 150 mg/kg body wt
